Format in all cases: cell-based
For one assay, the system named is Candida. Kind of assay: In vitro MIC, NCCLS M27A, Candida species. Set-up: MIC, Candida albicans 1.549 / MIC, Candida albicans Y-01-19 / MIC, C. krusei 766-1 / MIC, C. krusei Q. C / MIC, Candida tropicalis ATCC / MIC, C. glabrata 90030: unit not given beside the values; MIC, Candida albicans A 26 / MIC, C. parapsilosis Q. C.: unit not given here. To be noted: for MIC, C. glabrata 90030: C. glabrata strain 90030; for MIC, C. krusei 766-1: C. krusei strain 766-1; for MIC, C. krusei Q. C: C. krusei strain Q. C; for MIC, C. parapsilosis Q. C.: C. parapsilosis strain Q. C.; for MIC, Candida albicans 1.549: Candida albicans strain 1.549; for MIC, Candida albicans A 26: Candida albicans strain A 26; for MIC, Candida albicans Y-01-19: Candida albicans strain Y-01-19.

The subject of a further assay is A. fumigatus s 1008. Kind of assay: In vitro MIC, NCCLS M38P broth method (RPMI 1640/MOPS pH7), Aspergillus fumigatus. To be noted: A. fumigatus strain 1008.
Another assay concerns Histoplasma capsulatum.
For the next assay, the system named is Cryptococcus neoformans. Kind of assay: In vitro MIC, NCCLS M27A, Cryptococcus neoformans. Also on record: MIC, C. neoformans I: unit not given beside the values; MIC, C. neoformans M 106: unit not given here. To be noted: for MIC, C. neoformans I: C. neoformans strain I; for MIC, C. neoformans M 106: C. neoformans strain M 106.

In brackets after ≈: the same amount, converted by molar mass. Some results are limits rather than exact numbers.

In the case of `Cc1ccc(N2CCN(c3ccc(-n4cnn([C@H](C)[C@](O)(Cn5cncn5)c5ccc(F)cc5F)c4=O)cc3)CC2)cc1C` [Compound 23, 2-{[1R2R/1S2S]-2-(2,4-Difluorophenyl)-2-hydroxy-1-methyl-3-(1H-1,2,4-triazol-1-yl)propyl}-4-{4-[4-(3,4-dimethylphenyl)-1-piperazinyl]phenyl}-3-(2H,4H)-1,2,4-triazolone], in the assay with Candida, the “MIC, C. glabrata 90030” value came out at 0.50; the “MIC, C. krusei 766-1” value was found to be 0.50; the “MIC, C. krusei Q. C” value was 0.25; the “MIC, C. parapsilosis Q. C.” value is below 0.03. In addition, in the assay on Candida, the “MIC, Candida albicans 1.549” value turned out to be 0.25; the “MIC, Candida albicans A 26” value is below 0.03; the “MIC, Candida albicans Y-01-19” value is 0.50; the “MIC, Candida tropicalis ATCC” value is below 0.03. In addition, in the assay with A. fumigatus s 1008, the “MIC, A. fumigatus 1008” value stood at 1.00. Further, the MIC, H. capsulatum against Histoplasma capsulatum worked out at 0.06 µg/mL (≈ 0.0999 µM). Moreover, in the assay on Cryptococcus neoformans, the “MIC, C. neoformans I” value was below 0.03 and the “MIC, C. neoformans M 106” value is recorded as below 0.03.

For the molecule `Cc1ccc(N2CCN(c3ccc(-n4cnn([C@H](C)[C@@](O)(Cn5cncn5)c5ccc(F)cc5F)c4=O)cc3)CC2)cc1C` [Compound 24, 2-{[1R2S/1S2R]-2-(2,4-Difluorophenyl)-2-hydroxy-1-methyl-3-(1H-1,2,4-triazol-1-yl)propyl}-4-{4-[4-(3,4-dimethylphenyl)-1-piperazinyl]phenyl}-3-(2H,4H)-1,2,4-triazolone], in the assay on Candida, the “MIC, C. glabrata 90030” value turned out to be 2.00; the “MIC, C. krusei 766-1” value was above 16; the “MIC, C. krusei Q. C” value amounted to 16.0; the “MIC, C. parapsilosis Q. C.” value is 0.25. Also, in the assay on Candida, the “MIC, Candida albicans 1.549” value was found to be 2.00; the “MIC, Candida albicans A 26” value is on record as below 0.03; the “MIC, Candida albicans Y-01-19” value is given as 16.00; the “MIC, Candida tropicalis ATCC” value is given as below 0.03. Further, in the assay with A. fumigatus s 1008, the “MIC, A. fumigatus 1008” value was above 16. The MIC, H. capsulatum in the assay with Histoplasma capsulatum turned out to be 0.25 µg/mL (≈ 0.416 µM). Also, in the assay on Cryptococcus neoformans, the “MIC, C. neoformans I” value turned out to be 0.50 and the “MIC, C. neoformans M 106” value is on record as 1.00.

As to `C[C@@H](n1ncn(-c2ccc(N3CCN(c4ccccc4F)CC3)cc2)c1=O)[C@](O)(Cn1cncn1)c1ccc(F)cc1F` [Compound 25, 2-{[1R2R/1S2S]-2-(2,4-Difluorophenyl)-2-hydroxy-1-methyl-3-(1H-1,2,4-triazol-1-yl)propyl}-4-{4-[4-(2-fluorophenyl)-1-piperazinyl]phenyl}-3-(2H,4H)-1,2,4-triazolone], in the assay with Candida, the “MIC, C. glabrata 90030” value was found to be 0.12; the “MIC, C. krusei 766-1” value was 0.12; the “MIC, C. krusei Q. C” value was determined as 0.06; the “MIC, C. parapsilosis Q. C.” value was below 0.03. In the assay on Candida, the “MIC, Candida albicans 1.549” value came to 0.06; the “MIC, Candida albicans A 26” value is below 0.03; the “MIC, Candida albicans Y-01-19” value was determined as 0.12; the “MIC, Candida tropicalis ATCC” value was below 0.03. Besides, in the assay with A. fumigatus s 1008, the “MIC, A. fumigatus 1008” value is 0.50. The same molecule returned an MIC, H. capsulatum with Histoplasma capsulatum of 0.06 µg/mL (≈ 0.102 µM). For the same molecule, in the assay with Cryptococcus neoformans, the “MIC, C. neoformans I” value is recorded as below 0.03 and the “MIC, C. neoformans M 106” value is below 0.03.

Consider `Cc1nn([C@H](C)[C@@](O)(Cn2cncn2)c2ccc(F)cc2F)c(=O)n1-c1ccc(N2CCN(c3ccccc3F)CC2)cc1` [Compound 26, 2-{[1R2S/1S2R]-2-(2,4-Difluorophenyl)-2-hydroxy-1-methyl-3-(1H-1,2,4-triazol-1-yl)propyl}-4-{4-[4-(2-fluorophenyl)-1-piperazinyl]phenyl}-3-(2H,4H)-5-methyl-1,2,4-triazolone], for which, in the assay on Candida, the “MIC, C. glabrata 90030” value amounted to 1.00; the “MIC, C. krusei 766-1” value is reported as 2.00; the “MIC, C. krusei Q. C” value amounted to 0.50; the “MIC, C. parapsilosis Q. C.” value is given as below 0.03. Further, in the assay on Candida, the “MIC, Candida albicans 1.549” value is 0.25; the “MIC, Candida albicans A 26” value is below 0.03; the “MIC, Candida albicans Y-01-19” value stood at 1.00; the “MIC, Candida tropicalis ATCC” value is given as below 0.03. For the same molecule, in the assay with A. fumigatus s 1008, the “MIC, A. fumigatus 1008” value came out at 8.00. Further, the MIC, H. capsulatum against Histoplasma capsulatum stood at 0.12 µg/mL (≈ 0.198 µM). Besides, in the assay with Cryptococcus neoformans, the “MIC, C. neoformans I” value was below 0.03 and the “MIC, C. neoformans M 106” value was below 0.03.

Consider `COc1ccc(F)cc1N1CCN(c2ccc(-n3c(C)nn([C@H](C)[C@](O)(Cn4cncn4)c4ccc(F)cc4F)c3=O)cc2)CC1` [Compound 27, 2-{[1R2R/1S2S]-2-(2,4-Difluorophenyl)-2-hydroxy-1-methyl-3-(1H-1,2,4-triazol-1-yl)propyl}-4-{4-[4-(2-methoxy-5-fluorophenyl)-1-piperazinyl]phenyl}-3-(2H,4H)-5-methyl-1,2,4-triazolone], for which, in the assay with Candida, the “MIC, C. glabrata 90030” value is on record as 1.00; the “MIC, C. krusei 766-1” value turned out to be 2.00; the “MIC, C. krusei Q. C” value is listed as 0.50; the “MIC, C. parapsilosis Q. C.” value is below 0.03. In the assay on Candida, the “MIC, Candida albicans 1.549” value was found to be 1.00; the “MIC, Candida albicans A 26” value is recorded as below 0.03; the “MIC, Candida albicans Y-01-19” value came out at 0.50; the “MIC, Candida tropicalis ATCC” value was below 0.03. The “MIC, A. fumigatus 1008” value in the assay on A. fumigatus s 1008 was above 16. In addition, the MIC, H. capsulatum in the assay on Histoplasma capsulatum is below 0.03 µg/mL. For the same molecule, in the assay on Cryptococcus neoformans, the “MIC, C. neoformans I” value is recorded as below 0.03 and the “MIC, C. neoformans M 106” value is reported as below 0.03.

Turning to `COc1ccc(F)cc1N1CCN(c2ccc(-n3c(C)nn([C@H](C)[C@@](O)(Cn4cncn4)c4ccc(F)cc4F)c3=O)cc2)CC1` [Compound 28, 2-{[1R2S/1S2R]-2-(2,4-Difluorophenyl)-2-hydroxy-1-methyl-3-(1H-1,2,4-triazol-1-yl)propyl}-4-{4-[4-(2-methoxy-5-fluorophenyl)-1-piperazinyl]phenyl}-3-(2H,4H)-5-methyl-1,2,4-triazolone], in the assay with Candida, the “MIC, C. glabrata 90030” value is reported as 4.00; the “MIC, C. krusei 766-1” value is above 16; the “MIC, C. krusei Q. C” value was found to be 16.0; the “MIC, C. parapsilosis Q. C.” value came to 0.25. In the assay on Candida, the “MIC, Candida albicans 1.549” value was 8.00; the “MIC, Candida albicans A 26” value is below 0.03; the “MIC, Candida albicans Y-01-19” value amounted to 4.00; the “MIC, Candida tropicalis ATCC” value is given as below 0.03. Besides, in the assay with A. fumigatus s 1008, the “MIC, A. fumigatus 1008” value was above 16. The molecule further came in with an MIC, H. capsulatum in the assay with Histoplasma capsulatum of 2 µg/mL (≈ 3.15 µM). In the assay on Cryptococcus neoformans, the “MIC, C. neoformans I” value is on record as 0.25 and the “MIC, C. neoformans M 106” value turned out to be 1.00.

For `Cc1nn([C@H](C)[C@](O)(Cn2cncn2)c2ccc(F)cc2F)c(=O)n1-c1ccc(N2CCN(c3cc(Cl)cc(Cl)c3)CC2)cc1` [Compound 29, 2-{[1R2R/1S2S]-2-(2,4-Difluorophenyl)-2-hydroxy-1-methyl-3-(1H-1,2,4-triazol-1-yl)propyl}-4-{4-[4-(3,5-dichlorophenyl)-1-piperazinyl]phenyl}-3-(2H,4H)-5-methyl-1,2,4-triazolone], in the assay with Candida, the “MIC, C. glabrata 90030” value was 0.50; the “MIC, C. krusei 766-1” value was 0.50; the “MIC, C. krusei Q. C” value is on record as 0.25; the “MIC, C. parapsilosis Q. C.” value is on record as below 0.03. Besides, in the assay on Candida, the “MIC, Candida albicans 1.549” value stood at 0.25; the “MIC, Candida albicans A 26” value is on record as below 0.03; the “MIC, Candida albicans Y-01-19” value worked out at 0.25; the “MIC, Candida tropicalis ATCC” value is recorded as below 0.03. In addition, the “MIC, A. fumigatus 1008” value with A. fumigatus s 1008 was determined as 0.50. Also, the MIC, H. capsulatum against Histoplasma capsulatum came out at 0.25 µg/mL (≈ 0.381 µM). In addition, in the assay with Cryptococcus neoformans, the “MIC, C. neoformans I” value is reported as below 0.03 and the “MIC, C. neoformans M 106” value is listed as below 0.03.

Turning to `Cc1nn([C@H](C)[C@@](O)(Cn2cncn2)c2ccc(F)cc2F)c(=O)n1-c1ccc(N2CCN(c3cc(Cl)cc(Cl)c3)CC2)cc1` [Compound 30, 2-{[1R2S/1S2R]-2-(2,4-Difluorophenyl)-2-hydroxy-1-methyl-3-(1H-1,2,4-triazol-1-yl)propyl}-4-{4-[4-(3,5-dichlorophenyl)-1-piperazinyl]phenyl}-3-(2H,4H)-5-methyl-1,2,4-triazolone], in the assay on Candida, the “MIC, C. glabrata 90030” value is given as 1.00; the “MIC, C. krusei 766-1” value is listed as 8.00; the “MIC, C. krusei Q. C” value stood at 1.00; the “MIC, C. parapsilosis Q. C.” value came to 0.12. Besides, in the assay on Candida, the “MIC, Candida albicans 1.549” value was 0.50; the “MIC, Candida albicans A 26” value is given as below 0.03; the “MIC, Candida albicans Y-01-19” value came out at 1.00; the “MIC, Candida tropicalis ATCC” value was below 0.03. Also, the “MIC, A. fumigatus 1008” value in the assay on A. fumigatus s 1008 was above 16. Moreover, the MIC, H. capsulatum against Histoplasma capsulatum was determined as 0.5 µg/mL (≈ 0.763 µM). In the assay with Cryptococcus neoformans, the “MIC, C. neoformans I” value was found to be 0.12 and the “MIC, C. neoformans M 106” value is recorded as 0.25.

Turning to `CCc1ccccc1N1CCN(c2ccc(-n3c(C)nn([C@H](C)[C@](O)(Cn4cncn4)c4ccc(F)cc4F)c3=O)cc2)CC1` [Compound 31, 2-{[1R2R/1S2S]-2-(2,4-Difluorophenyl)-2-hydroxy-1-methyl-3-(1H-1,2,4-triazol-1-yl)propyl}-4-{4-[4-(2-ethylphenyl)-1-piperazinyl]phenyl}-3-(2H,4H)-5-methyl-1,2,4-triazolone], in the assay with Candida, the “MIC, C. glabrata 90030” value was found to be 0.50; the “MIC, C. krusei 766-1” value is on record as 0.50; the “MIC, C. krusei Q. C” value is given as 0.12; the “MIC, C. parapsilosis Q. C.” value was below 0.03. Besides, in the assay on Candida, the “MIC, Candida albicans 1.549” value is on record as above 16; the “MIC, Candida albicans A 26” value is recorded as below 0.03; the “MIC, Candida albicans Y-01-19” value turned out to be 0.12; the “MIC, Candida tropicalis ATCC” value was below 0.03. In addition, the “MIC, A. fumigatus 1008” value in the assay with A. fumigatus s 1008 came out at 1.00. This molecule registered an MIC, H. capsulatum with Histoplasma capsulatum of 0.06 µg/mL (≈ 0.0976 µM). Moreover, in the assay with Cryptococcus neoformans, the “MIC, C. neoformans I” value is listed as below 0.03 and the “MIC, C. neoformans M 106” value is below 0.03.

The values are drawn from patent US6670363B1, “Azole compounds as therapeutic agents for fungal infections” (Ranbaxy Laboratories Limited, priority 2000, dated 2003).
